Results taken from US20220031684A1, “PROPHYLACTIC EFFICACY OF SEROTONIN 4 RECEPTOR AGONISTS AGAINST STRESS” (THE TRUSTEES OF COLUMBIA UNIVERSITY IN THE CITY OF NEW YORK, priority 2019, published 2022).

Experiments:
[1] = Chronic corticosterone (CORT) model: body weight; format: in vivo, mice; details: male C57BL/6NTac; Flx 18 mg/kg/day in drinking water or RS-67,333 1.5 mg/kg/day in osmotic minipumps for 3 weeks prior to CORT
Protocol: This chronic CORT elevation dysregulates the hypothalamic-pituitary-adrenal axis (HPA) in a manner similar to that observed in clinical depression. The dose and duration of CORT treatment was selected based on previous studies. CORT (35 μg/ml, equivalent to about 5 mg/kg/day) dissolved in 0.45% hydroxypropyl-o-cyclodextrin (0-CD) or vehicle (VEH) (0.45% j-CD) was available ad libitum in the drinking water in opaque bottles to protect it from light. VEH- and CORT-treated water was changed every 3 days to prevent possible degradation. Contextual Fear Conditioning (CFC): A 3-shock CFC procedure was administered as previously published. Briefly, mice were placed into context A and administered 3 2-s shocks (0.75 mA) at 180 s, 240 s or 300 s following placement into context A. Mice were removed from the context 15 s following the termination of shock (at 317 s). For context retrieval, mice were placed back into context A for 300 s. Electrophysiology: Electrophysiology was conducted as previously described. Statistical Analysis: Results from data analyses are expressed as means±SEM. Alpha was set to 0.05 for all analyses. Data were analyzed using GraphPad Prism v7.0 or v8.0. For all experiments, unless otherwise noted, one- or two-way ANOVAs with repeated-measures were applied to the data as appropriate. […] Videos were scored using ANY-maze behavior tracking software (Stoelting, Wood Dale, Ill.). […]

129S6/SvEv mice [2] = assay: Forced swim test (FST) after CFC; format: in vivo
Protocol: (§1) This chronic CORT elevation dysregulates the hypothalamic-pituitary-adrenal axis (HPA) in a manner similar to that observed in clinical depression. The dose and duration of CORT treatment was selected based on previous studies. CORT (35 μg/ml, equivalent to about 5 mg/kg/day) dissolved in 0.45% hydroxypropyl-o-cyclodextrin (0-CD) or vehicle (VEH) (0.45% j-CD) was available ad libitum in the drinking water in opaque bottles to protect it from light. VEH- and CORT-treated water was changed every 3 days to prevent possible degradation. Contextual Fear Conditioning (CFC): A 3-shock CFC procedure was administered as previously published. Briefly, mice were placed into context A and administered 3 2-s shocks (0.75 mA) at 180 s, 240 s or 300 s following placement into context A. Mice were removed from the context 15 s following the termination of shock (at 317 s). For context retrieval, mice were placed back into context A for 300 s. Electrophysiology: Electrophysiology was conducted as previously described. Statistical Analysis: Results from data analyses are expressed as means±SEM. Alpha was set to 0.05 for all analyses. Data were analyzed using GraphPad Prism v7.0 or v8.0. For all experiments, unless otherwise noted, one- or two-way ANOVAs with repeated-measures were applied to the data as appropriate. Significant main effects and/or interactions were followed by Fisher's PLSD post hoc analysis or unpaired t-tests. Drugs: All drugs were prepared in physiological saline and all injections were administered intraperitoneally (i.p.) in volumes of 0.1 cc per […] body weight unless otherwise noted. Fluoxetine hydrochloride (Flx): Flx (BioTrend Chemicals AG, BG197, Zurich, Germany) was administered in the drinking water (18 mg/kg/day) for 3 weeks before the start of CORT. […] (R,S)-ketamine (K): (R,S)-ketamine (Ketaset III, Ketamine HCl injection, Fort Dodge Animal Health, Fort Dodge, Iowa) was administered in a single dose at 30 mg/kg of body weight 1 week before the start of CFC. […] PF-04995274: PF-04995274 (Sigma, Catalog No. 1331782-27-4, St. Louis, Mo.) was administered a single dose at 3 or 10 mg/kg of body weight 1 week before the start of CFC. PF-04995274 was dissolved in saline using an ultrasonic homogenizer (BioLogics, Model 3000, Manassas, Va.). Osmotic minipump implantation: ALZET osmotic minipumps (Model 2004, […], 28 days) were implanted subcutaneously under isoflurane anesthesia as previously described [S2]. Osmotic minipumps were rotated under the skin two to three times per week. Behavioral Assays: All experiments were approved by the Institutional Animal Care and Use Committee (IACUC) at the New York Psychiatric Institute (NYSPI). Elevated Plus Maze (EPM): Testing was performed as previously described [S3]. Briefly, the maze is a plus-cross-shaped apparatus consisting of four arms, two open and two enclosed by walls, linked by a central platform at a height of 50 cm from the floor. Mice were individually placed in the center of the maze facing an open arm and were allowed to explore the maze for 5 min. The time spent in and the number of entries into the open arms was used as an anxiety index. Videos were scored using ANY-maze behavior tracking software (Stoelting, Wood Dale, Ill.). Novelty-Suppressed Feeding: The NSF is a conflict test that elicits competing motivations: the drive to eat and the fear of venturing into the center of a brightly lit arena. The latency to feed is used as an index of anxiety-like behavior, because classical anxiolytic drugs decrease this measure. The NSF test was carried out during an 8 min period as previously described [S3]. Briefly, the testing apparatus consisted of a plastic box (50×50×20 cm), the floor of which was covered with approximately 2 cm of bedding. For 129S6/SvEv experiments, mice were food restricted for 12 h. For the C57BL/6N experiments, mice were food restricted for 24 h. […]

sigma 1 = sigma 1 (Homo sapiens, UniProt Q99720); details: cited from earlier work
[3] = target: other neurotransmitter receptors; details: except sigma receptors; cited from earlier work
129S6/SvEv mice [4] = assay: Elevated plus maze (EPM) after CFC; format: in vivo
Protocol: as §1

[5] = FIG. 3 cohort, FIG. 3G, Fisher's PLSD
[6] = female 129S6/SvEv, 1.5 or 10 mg/kg

Chain of sigma 1 (Q99720 whole entry): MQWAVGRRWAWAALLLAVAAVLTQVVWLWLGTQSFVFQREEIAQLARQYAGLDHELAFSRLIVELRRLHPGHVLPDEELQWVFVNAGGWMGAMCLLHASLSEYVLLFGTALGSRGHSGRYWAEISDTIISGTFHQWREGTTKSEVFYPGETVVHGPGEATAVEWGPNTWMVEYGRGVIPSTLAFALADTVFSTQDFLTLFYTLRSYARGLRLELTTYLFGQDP

## CCCCN1CCC(CCC(=O)c2cc(Cl)c(N)cc2OC)CC1.Cl [RS-67,333, 1-(4-amino-5-chloro-2-methoxyphenyl)-3-[1(n-butyl)-4-piperidinyl]-1-propanone HCl]
[1]
  CORT-induced increase in body weight: attenuated
129S6/SvEv mice [2]; FIG. 2E, Fisher's LSD
  p, FST Day 1 Immobility Time (sec), RS67333 (1.5 mg/kg) vs. RS67333 (10 mg/kg): 0.3430
  p, FST Day 1 Immobility Time (sec), RS67333 (1.5 mg/kg) vs. RS67333 (30 mg/kg): 0.5994
  p, FST Day 1 Immobility Time (sec), RS67333 (10 mg/kg) vs. RS67333 (30 mg/kg): 0.1099
  p, FST Day 1 Immobility Time (sec), Saline vs. RS67333 (1.5 mg/kg): 0.3784
  p, FST Day 1 Immobility Time (sec), Saline vs. RS67333 (10 mg/kg): 0.0028
  p, FST Day 1 Immobility Time (sec), Saline vs. RS67333 (30 mg/kg): 0.8437
129S6/SvEv mice [2]; [5]
  p, FST Day 2 Immobility Time (min 3-6) (sec), RS67333 (1.5 mg/kg) vs. RS67333 (10 mg/kg): 0.0235
  p, FST Day 2 Immobility Time (min 3-6) (sec), Saline vs. RS67333 (1.5 mg/kg): 0.4916
  p, FST Day 2 Immobility Time (min 3-6) (sec), Saline vs. RS67333 (10 mg/kg): 0.1991
129S6/SvEv mice [2]; female 129S6/SvEv, 1.5 or 10 mg/kg vs saline
  immobility, FST days 1 and 2: comparable levels of immobility
129S6/SvEv mice [2]; male 129S6/SvEv, RS-67,333 1.5, 10 or 30 mg/kg vs saline
  immobility time, FST Day 2: comparable
129S6/SvEv mice [2]; male 129S6/SvEv, single injection 1 week before CFC, 10 mg/kg
  immobility, FST Day 1 vs saline: significantly less immobile
Sigma 1
  pKi sigma 1: 8.9
[3]
  pKi for other neurotransmitter receptors: less than 6.7
129S6/SvEv mice [4]; FIG. 2J, t-test
  p, EPM Time in Open, Saline vs. RS67333 (10 mg/kg): 0.2069
129S6/SvEv mice [4]; FIG. 2K, t-test
  p, EPM Entries into Open, Saline vs. RS67333 (10 mg/kg): 0.3584
129S6/SvEv mice [4]; [6]
  entries into the open arms of the EPM: comparable
  time spent in the open arms of the EPM: comparable
129S6/SvEv mice [4]; male 129S6/SvEv, 10 mg/kg
  entries into the open arms of the EPM vs saline: neither in the open arms nor entries into the open arms of the maze was significantly different
  time in the open arms of the EPM vs saline: neither in the open arms nor entries into the open arms of the maze was significantly different
